Test results published in PubChem BioAssay AID1259407 (Chemical Carcinogenesis Research Information System (CCRIS), 2018).
Activity calls are given as the source filed them. How the calls were made is not given here.

System: CCRIS mutagenicity, Ames/micronucleus/aberration tests
Assay: CCRIS mutagenicity studies
[1] = Test System: AMES SALMONELLA TYPHIMURIUM, Strain/Indicator: TA98, Metabolic Activation: NONE, Method: PREINCUBATION
[2] = Test System: AMES SALMONELLA TYPHIMURIUM, Strain/Indicator: TA98, Metabolic Activation: RAT LIVER S-9, PHENOBARBITAL AND BETA-NAPHTHOFLAVONE, Method: PREINCUBATION
[3] = Test System: AMES SALMONELLA TYPHIMURIUM, Strain/Indicator: TA100, Metabolic Activation: MOUSE, LIVER, S-9, Method: PREINCUBATION
[4] = Test System: AMES SALMONELLA TYPHIMURIUM, Strain/Indicator: TA100, Metabolic Activation: NONE, Method: PREINCUBATION
[5] = Test System: AMES SALMONELLA TYPHIMURIUM, Strain/Indicator: TA100, Metabolic Activation: RAT LIVER S-9, PHENOBARBITAL AND BETA-NAPHTHOFLAVONE, Method: PREINCUBATION
[6] = Test System: AMES SALMONELLA TYPHIMURIUM, Strain/Indicator: TA1535, Metabolic Activation: NONE, Method: PREINCUBATION
[7] = Test System: AMES SALMONELLA TYPHIMURIUM, Strain/Indicator: TA1535, Metabolic Activation: RAT LIVER S-9, PHENOBARBITAL AND BETA-NAPHTHOFLAVONE, Method: PREINCUBATION
[8] = Test System: AMES SALMONELLA TYPHIMURIUM, Strain/Indicator: TA1537, Metabolic Activation: NONE, Method: PREINCUBATION
[9] = Test System: AMES SALMONELLA TYPHIMURIUM, Strain/Indicator: TA1537, Metabolic Activation: RAT LIVER S-9, PHENOBARBITAL AND BETA-NAPHTHOFLAVONE, Method: PREINCUBATION
[10] = Test System: AMES SALMONELLA TYPHIMURIUM, Strain/Indicator: TA1538, Metabolic Activation: NONE, Method: PREINCUBATION
[11] = Test System: E.COLI, Strain/Indicator: WP2UVRA, Metabolic Activation: NONE, Method: PREINCUBATION
[12] = Test System: E.COLI, Strain/Indicator: WP2UVRA, Metabolic Activation: RAT LIVER S-9, PHENOBARBITAL AND BETA-NAPHTHOFLAVONE, Method: PREINCUBATION

N#CN=C(N)N was tested, and the mutagenic call (Test System: AMES SALMONELLA TYPHIMURIUM, Strain/Indicator: TA98, Metabolic Activation: MAIZE SEEDLING, S-14, Method: PREINCUBATION) was “active; positive”, the mutagenic call (Test System: AMES SALMONELLA TYPHIMURIUM, Strain/Indicator: TA98, Metabolic Activation: MOUSE, LIVER, S-9, Method: PREINCUBATION) was “inactive; negative” and the mutagenic call [1] was “inactive; negative”. The mutagenic call [2] was “inactive; negative”, the mutagenic call (Test System: AMES SALMONELLA TYPHIMURIUM, Strain/Indicator: TA100, Metabolic Activation: MAIZE SEEDLING, S-14, Method: PREINCUBATION) was “inactive; negative” and the mutagenic call [3] was “inactive; negative”. For the same molecule, the mutagenic call [4] was “inactive; negative”, the mutagenic call [5] was “inactive; negative” and the mutagenic call (Test System: AMES SALMONELLA TYPHIMURIUM, Strain/Indicator: TA102, Metabolic Activation: NONE, Method: PREINCUBATION) was “inactive; negative”. The mutagenic call (Test System: AMES SALMONELLA TYPHIMURIUM, Strain/Indicator: TA102, Metabolic Activation: RAT LIVER S-9, PHENOBARBITAL AND BETA-NAPHTHOFLAVONE, Method: PREINCUBATION) was “inactive; negative”, the mutagenic call (Test System: AMES SALMONELLA TYPHIMURIUM, Strain/Indicator: TA104, Metabolic Activation: NONE, Method: PREINCUBATION) was “inactive; negative” and the mutagenic call (Test System: AMES SALMONELLA TYPHIMURIUM, Strain/Indicator: TA104, Metabolic Activation: RAT LIVER S-9, PHENOBARBITAL AND BETA-NAPHTHOFLAVONE, Method: PREINCUBATION) was “inactive; negative”. For the same molecule, the mutagenic call [6] was “inactive; negative”, the mutagenic call [7] was “inactive; negative” and the mutagenic call [8] was “inactive; negative”. For the same molecule, the mutagenic call [9] was “inactive; negative”, the mutagenic call [10] was “inactive; negative” and the mutagenic call (Test System: E.COLI, Strain/Indicator: WP2UVRA/PKM101, Metabolic Activation: NONE, Method: PREINCUBATION) was “inactive; negative”. For the same molecule, the mutagenic call (Test System: E.COLI, Strain/Indicator: WP2UVRA/PKM101, Metabolic Activation: RAT LIVER S-9, PHENOBARBITAL AND BETA-NAPHTHOFLAVONE, Method: PREINCUBATION) was “inactive; negative”, the mutagenic call [11] was “inactive; negative” and the mutagenic call [12] was “inactive; negative”.

In the case of [Cl][V]([Cl])[Cl], the mutagenic call [1] is reported as “inactive; negative”, the mutagenic call [2] is reported as “inactive; negative” and the mutagenic call [4] is reported as “inactive; negative”. The mutagenic call [5] was “inactive; negative”, the mutagenic call [6] was “inactive; negative” and the mutagenic call [7] was “inactive; negative”. The mutagenic call [8] was “inactive; negative”, the mutagenic call [9] was “inactive; negative” and the mutagenic call [10] was “inactive; negative”. For the same molecule, the mutagenic call (Test System: AMES SALMONELLA TYPHIMURIUM, Strain/Indicator: TA1538, Metabolic Activation: RAT LIVER S-9, PHENOBARBITAL AND BETA-NAPHTHOFLAVONE, Method: PREINCUBATION) was “inactive; negative”, the mutagenic call [11] was “inactive; negative” and the mutagenic call [12] was “inactive; negative”.

OC1C=Cc2c(ccc3c2-c2cccc4cccc-3c24)C1O (centres undefined) was tested, and the mutagenic call (Test System: AMES SALMONELLA TYPHIMURIUM, Strain/Indicator: TA97A, Metabolic Activation: NONE, Method: PREINCUBATION) was “inactive; negative”, the mutagenic call (Test System: AMES SALMONELLA TYPHIMURIUM, Strain/Indicator: TA97A, Metabolic Activation: RAT, LIVER, S-9, AROCLOR 1254, Method: PREINCUBATION) was “active; positive” and the mutagenic call [1] was “inactive; negative”. The mutagenic call (Test System: AMES SALMONELLA TYPHIMURIUM, Strain/Indicator: TA98, Metabolic Activation: RAT, LIVER, S-9, AROCLOR 1254, Method: PREINCUBATION) was “active; positive”, the mutagenic call [4] was “inactive; negative” and the mutagenic call (Test System: AMES SALMONELLA TYPHIMURIUM, Strain/Indicator: TA100, Metabolic Activation: RAT, LIVER, S-9, AROCLOR 1254, Method: PREINCUBATION) was “active; positive”.

For Cc1cccc(C)c1N=Nc1c(O)ccc2ccccc12, the mutagenic call (Test System: AMES SALMONELLA TYPHIMURIUM, Strain/Indicator: TA98, Metabolic Activation: NONE, Method: STANDARD PLATE) was “inactive; negative”, the mutagenic call (Test System: AMES SALMONELLA TYPHIMURIUM, Strain/Indicator: TA98, Metabolic Activation: RAT, LIVER, S-9, Method: STANDARD PLATE) was “inactive; negative” and the mutagenic call (Test System: AMES SALMONELLA TYPHIMURIUM, Strain/Indicator: TA100, Metabolic Activation: NONE, Method: STANDARD PLATE) was “inactive; negative”. For the same molecule, the mutagenic call (Test System: AMES SALMONELLA TYPHIMURIUM, Strain/Indicator: TA100, Metabolic Activation: RAT, LIVER, S-9, Method: STANDARD PLATE) was “inactive; negative”.

For c1ccc(-c2cccnc2)nc1, the mutagenic call (Test System: AMES SALMONELLA TYPHIMURIUM, Strain/Indicator: TA97, Metabolic Activation: RAT, LIVER, S-9, PHENOBARBITAL, Method: STANDARD PLATE) was “active; positive”, the mutagenic call (Test System: AMES SALMONELLA TYPHIMURIUM, Strain/Indicator: TA97, Metabolic Activation: RAT, LIVER, S-9, SODIUM PHENOBARBITAL, Method: PREINCUBATION) was “active; positive” and the mutagenic call (Test System: AMES SALMONELLA TYPHIMURIUM, Strain/Indicator: TA98, Metabolic Activation: RAT, LIVER, S-9, PHENOBARBITAL, Method: STANDARD PLATE) was “inactive; negative”. The mutagenic call (Test System: AMES SALMONELLA TYPHIMURIUM, Strain/Indicator: TA100, Metabolic Activation: RAT, LIVER, S-9, PHENOBARBITAL, Method: STANDARD PLATE) was “inactive; negative”, the mutagenic call (Test System: AMES SALMONELLA TYPHIMURIUM, Strain/Indicator: TA100, Metabolic Activation: RAT, LIVER, S-9, SODIUM PHENOBARBITAL, Method: PREINCUBATION) was “active; positive” and the mutagenic call (Test System: AMES SALMONELLA TYPHIMURIUM, Strain/Indicator: TA1535, Metabolic Activation: RAT, LIVER, S-9, PHENOBARBITAL, Method: STANDARD PLATE) was “inactive; negative”. For the same molecule, the mutagenic call (Test System: AMES SALMONELLA TYPHIMURIUM, Strain/Indicator: TA1537, Metabolic Activation: RAT, LIVER, S-9, PHENOBARBITAL, Method: STANDARD PLATE) was “active; positive” and the mutagenic call (Test System: AMES SALMONELLA TYPHIMURIUM, Strain/Indicator: TA1538, Metabolic Activation: RAT, LIVER, S-9, PHENOBARBITAL, Method: STANDARD PLATE) was “inactive; negative”.

For CN(CC(O)CO)N=O (centres undefined), the mutagenic call (Test System: AMES SALMONELLA TYPHIMURIUM, Strain/Indicator: TA100, Metabolic Activation: HAMSTER, LIVER, S-9, 3-METHYLCHOLANTHRENE, Method: PREINCUBATION) was “active; positive”, the mutagenic call (Test System: AMES SALMONELLA TYPHIMURIUM, Strain/Indicator: TA100, Metabolic Activation: HAMSTER, LIVER, S-9, PHENOBARBITAL, Method: PREINCUBATION) was “active; positive” and the mutagenic call (Test System: AMES SALMONELLA TYPHIMURIUM, Strain/Indicator: TA100, Metabolic Activation: HAMSTER, LIVER, S-9, Method: PREINCUBATION) was “active; positive”. For the same molecule, the mutagenic call (Test System: AMES SALMONELLA TYPHIMURIUM, Strain/Indicator: TA100, Metabolic Activation: MOUSE, LIVER, S-9, 3-METHYLCHOLANTHRENE, Method: PREINCUBATION) was “active; positive”, the mutagenic call (Test System: AMES SALMONELLA TYPHIMURIUM, Strain/Indicator: TA100, Metabolic Activation: MOUSE, LIVER, S-9, PHENOBARBITAL, Method: PREINCUBATION) was “active; positive” and the mutagenic call [3] was “active; positive”. For the same molecule, the mutagenic call [4] was “inactive; negative” and the mutagenic call (Test System: AMES SALMONELLA TYPHIMURIUM, Strain/Indicator: TA100, Method: PREINCUBATION) was “active; positive”.
